Experimental data: US20240368534A1 (priority 2021, published 2024)
Read-outs that look alike come from different tables or passages of the source.

How the values were obtained:
[1] = system: transcription factor DmpR; type: cell-based, Pseudomonas spp. CF600
[2] = system: OPH-E. coli/S. oneidensis mixtures; type: cell-based
[3] = system: OPH-E. coli/S. oneidensis mixtures; type: cell-based; settings: for anodic current: 20 μM; for charge produced / charge relative to cell only baseline: at 24 hours
[4] = system: transcription factor DmpR; type: cell-based, Pseudomonas spp. CF600; remark: listed apart in the source
engineered S. oneidensis = type: cell-based
[5] = target: T1, organophosphate hydrolase (OPH) displayed on E. coli (Brevundimonas diminuta, UniProt P0A434); type: biochemical, Pseudomonas diminuta
T1 construct: expressed in transfected cells; host or cells: E. coli BL21 (DE3) carrying pSKB3-INPNC-OPH, IPTG-induced, lyophilized whole cells

Cc1ccc(O)c(O)c1 [4-methylcatechol]
GFP fluorescence response [1]: very low fluorescence

NCCc1ccc(O)c(O)c1 [dopamine]
GFP fluorescence response [1]: very low fluorescence

Oc1ccc(O)cc1 [hydroquinone]
GFP fluorescence response [1]: very low fluorescence

CCOC(=O)CC(SP(=O)(OC)OC)C(=O)OCC (stereo not shown) [malaoxon]
GFP expression [2]: GFP expression was not observed
total charge accumulated [3]: 0.068±0.006 mA*h
anodic current [3]: no significant current

O=[N+]([O-])c1ccc(O)cc1 [p-NP, p-nitrophenol]
increase in GFP fluorescence [1]: 54 fold
lowest concentration at which fluorescence observed [1]: 6.25 µM
GFP expression response [4]: logarithmic increase in GFP expression
anodic current (engineered S. oneidensis): continuous increase in anodic current
total charge (engineered S. oneidensis): 1.32±0.48 mA*h

COP(=O)(OC)Oc1ccc([N+](=O)[O-])cc1 [paraoxon-methyl]
increase in GFP fluorescence [2]: 48 fold
degradation rate [5]: significantly enhanced degradation rates
rate of p-NP production [5]: very slow rates of p-NP production
total charge accumulated [3]: 1.03±0.31 mA*h
anodic current [3]: increase in anodic current

CCOP(=O)(OCC)Oc1ccc([N+](=O)[O-])cc1 [paraoxon]
Km ([5]; read-out: Michaelis constant (KM)): 198 ± 81.7 µM
GFP fluorescence response [1]: No such increase in the fluorescence
anodic current (engineered S. oneidensis): did not yield a considerable current
total charge (engineered S. oneidensis): 0.21±0.02 mA*h
charge accumulation [3]: 0.140±0.02 mA*h
limit of detection of the sensor [3]: 0.15 µM
total charge accumulated [3]: 1.64±0.18 mA*h
charge produced ([3]; 1 μM): 0.101±0.017 mA*h
charge relative to cell only baseline ([3]; 1 μM): 1.7 times
charge produced ([3]; 5 μM): 0.180±0.018 mA*h
charge relative to cell only baseline ([3]; 5 μM): approximately three times higher
anodic current [3]: increase in anodic current

CCOP(=S)(OCC)Oc1ccc([N+](=O)[O-])cc1 [parathion]
increase in GFP fluorescence [2]: 58 fold
total charge accumulated [3]: 1.04±0.66 mA*h
anodic current [3]: increase in anodic current
